# Values of other authors, collected in patent publication US10537528B2 (The Regents of the University of California, priority 2015, dated 2020).
# Experiments:
# [1] = system: obese individuals with NASH; conditions: treated for 4-12 weeks
# [2] = system: intracellular cystine (circulating white blood cells)
# [3] = system: obese children who had steatosis; conditions: 400-1000 IU/day for 4-10 months
compound,measurement,setting,value
CC(=O)N[C@@H](CS)C(=O)O [N-acetylcysteine],aminotransferase levels and gamma-GT,[1],improvement
same,subject body mass index,[1],no reported change
NCCS [cysteamine],time to observed decrease in leukocyte cystine,[2]; delivery into the small intestine (WO 2007/089670),within an hour
same,depletion of intracellular cystine,"[2]; taken regularly, measured in circulating white blood cells",up to 90%
vitamin E,mean AST levels after treatment,"[3]; decreased from 104±61 IU/L, P<0.002",33±11 IU/L
same,mean ALT levels after treatment,"[3]; decreased from 175±106 IU/L, P<0.01",40±26 IU/L
